The source of these data is US20230346948A1, “Lipid conjugated peptide inhibitors of PICK1” (University of Copenhagen, priority 2020, published 2023).

“Also recorded” adds a separate entry of the source. Like-named read-outs stand apart in the source and are kept apart here.

A short description of series [1]: Plasma exposure after s.c. injection, LC-MS. It counts as in vivo. The following applies: male, C57BL/6N, mouse, sc; for Cmax: at 1 h, read-out: maximal plasma concentration. The procedure: Three point on the down-slope was determined from 3 points on the elimination phase.
The test system of series [2] is neuropathic pain (SNI model). The series is described as follows: Spared Nerve Injury (SNI) model of neuropathic pain, von Frey. The class given is in vivo, mice. The following applies: for relief of evoked pain (paw withdrawal threshold): day 7 after SNI, tested 1-6 h. The procedure:
Neuropathic pain. The SNI pain experiment was performed by Phenotype Expertise-Pain and CNS behaviour CRO under supervision of […]). Study was performed on 8 weeks old […] male mice (Charles River). The spared nerve injury surgery was performed on anaesthetized mice. Ligature and transection of the common peroneal and tibial distal branches of the sciatic nerve was performed, leaving the sural branch intact. […] The experimenter was blinded to mice treatment. […] All the compounds were diluted in PBS and administered s.c. at 10 μL/g. Statistical analysis was performed using GraphPad Prism 6.0. Two-way RM ANOVA followed by Bonferroni's post-hoc test. Significance level set to p<0.05. Neuropathic pain. Study was performed on 8 weeks old […] male mice (Charles River). The spared nerve injury surgery was performed on anaesthetized mice. Ligature and transection of the common peroneal and tibial distal branches of the sciatic nerve was performed, leaving the sural branch intact. […] The experimenter was blinded to mice treatment. […] All the compounds were diluted in PBS and administered 10 μmol/kg (10 μL/gram) […]. at 10 μL/g. Statistical analysis was performed using GraphPad Prism 6.0. Two-way RM ANOVA followed by Bonferroni's post-hoc test. Significance level set to p<0.05. Neuropathic pain. Study was performed on 8 weeks old […] male mice (Charles River). The spared nerve injury surgery was performed on anaesthetized mice. Ligature and transection of the common peroneal and tibial distal branches of the sciatic nerve was performed, leaving the sural branch intact. […] The mice were testes in von Frey monthly and the hyperalgesic response at 52 weeks was sustained. […] The experimenter was blinded to mice treatment. After injection, mechanical threshold was measured, 2 and 5 hrs. All the compounds were diluted in PBS and administered s.c. at 10 μL/g, 30 μmol/kg. Statistical analysis was performed using GraphPad Prism 6.0.

The subject of series [3] is inflammatory pain (CFA model). The series is described as follows: Complete Freund's Adjuvant (CFA) model of inflammatory pain, von Frey. It counts as in vivo, mice. The following applies: for relief of evoked pain (paw withdrawal threshold): day 2 after CFA. Here is the method:
Inflammatory pain: Animals were habituated to the experimental room for a minimum of 60 min before initiation of the experiment. Mechanical pain threshold was determined by von Frey measurements of both hind paws. Injury was induced on the right hind paw, whereas the contralateral left hind paw was used as internal control of the animal. Von Frey filaments ranging from 0.04 to 2 g (g=gram-forces) (0.04, 0.07, 0.16, 0.4, 0.6, 1.0, 1.4, 2.0) were used for determination of mechanical pain threshold. In the current experiment filaments in ascending order were applied to the frontocentral plantar surface of the hind paws. Mice were placed in PVC plastic boxes (11.5 cm×14 cm) on a wire mesh, and allowed 30 min habituation prior of […]. Each von Frey hair was applied five times with adequate resting periods between each application and number of withdrawals recorded. The withdrawal threshold was determined as the von Frey filament eliciting at least 3 positive trials out of the 5 applications in two consecutive filaments. A positive trial was defined as sudden paw withdrawal, flinching and/or paw licking induced by the filament. The inflammatory pain was induced by injection of 50 μL undiluted Complete Freund's Adjuvant (CFA) (F5881, Sigma) unilaterally into the intraplantar surface of the right hind paw, whereas control mice were injected with the same amount of 0.9% saline (B. Braun, Germany). All intraplantar injections were performed with and insulin needle (0.3 mL BD Micro-Fine) while the animal was under isoflurane anesthesia (2%) for maximum 60 seconds. Von Frey was applied up to 11 days after unilateral CFA injection depending on the experiment. […] Statistical analysis was performed using GraphPad Prism 6.0. Two-way RM ANOVA followed by Bonferroni's post-hoc test. Significance level set to p<0.05.
Inflammatory pain (CFA model): Animals were habituated to the experimental room for a minimum of 60 min before initiation of the experiment. Mechanical pain threshold was determined by von Frey measurements of both hind paws. Injury was induced on the right hind paw, whereas the contralateral left hind paw was used as internal control of the animal.
Von Frey filaments ranging from 0.04 to 2 g (g=gram-forces) (0.04, 0.07, 0.16, 0.4, 0.6, 1.0, 1.4, 2.0) were used for determination of mechanical pain threshold. In the current experiment filaments in ascending order were applied to the frontocentral plantar surface of the hind paws. Mice were placed in PVC plastic boxes (11.5 cm×14 cm) on a wire mesh, and allowed 30 min habituation prior of testing. Each von Frey hair was applied five times with adequate resting periods between each application and number of withdrawals recorded. The withdrawal threshold was determined as the von Frey filament eliciting at least 3 positive trials out of the 5 applications in two consecutive filaments. A positive trial was defined as sudden paw withdrawal, flinching and/or paw licking induced by the filament.
The inflammatory pain was induced by injection of 50 μL undiluted Complete Freund's Adjuvant (CFA) (F5881, Sigma) unilaterally into the intraplantar surface of the right hind paw, whereas control mice were injected with the same amount of 0.9% saline (B. Braun, Germany). All intraplantar injections were performed with an insulin needle (0.3 mL BD Micro-Fine) while the animal was under isoflurane anesthesia (2%) for maximum 60 seconds. Von Frey was applied up to 6 days after unilateral CFA injection depending on the experiment. The peptides were administered s.c. (10 μL/g)), and at different concentrations (0.4 and 2 μmol/kg). Statistical analysis was performed using GraphPad Prism 6.0. Two-way RM ANOVA followed by Dunnett's post-hoc test. Significance level set to p<0.05.

With `CCCCCCCCCCCCCC(=O)N(CCOCCOCCC(=O)N[C@@H](Cc1c[nH]cn1)C(=O)N[C@@H](Cc1c[nH]c2ccccc12)C(=O)N[C@@H](CC(C)C)C(=O)N[C@@H](CCCCN)C(=O)N[C@H](C(=O)O)C(C)C)CCOCCOCCC(=O)N[C@@H](Cc1c[nH]cn1)C(=O)N[C@@H](Cc1c[nH]c2ccccc12)C(=O)N[C@@H](CC(C)C)C(=O)N[C@@H](CCCCN)C(=O)N[C@H](C(=O)O)C(C)C` [myr-NPEG4-(HWLKV)2], the Cmax in series [1] (s.c. 3.75 mg/kg (2 μmol/kg)) was 1450 ± 106 ng/mL; in series [1] (s.c. 18.8 mg/kg (10 μmol/kg)) it was 6170 ± 508 ng/mL; in series [1] (s.c. 93.8 mg/kg (50 μmol/kg)) it was 20300 ± 642 ng/mL. Further, the half-life (commonly the time needed for the level to fall by half in the phase considered) in series [1] (summary over doses) lay in the range of 30 to 45 min. Besides, the “paw withdrawal threshold of uninjured contralateral paw” value is given as “remained unaltered” in series [2] (SNI model, Example 8) and “remained unaltered” in series [3] (CFA model, Example 7). Besides, the “relief of evoked pain (paw withdrawal threshold)” value in series [2] (s.c. 2 μmol/kg) was “no significant pain relief”; in series [2] (s.c. 10 μmol/kg), “significant pain relief up to 3 hours post injection”; in series [3] (intrathecal 20 μM, 7 μL, 1 and 5 h) it was “significant pain relief at 1 hour and 5 hours”; in series [3] (intrathecal 20 μM, 7 μL, 24 h), “no effect 24 hours after administration”; in series [3] (s.c. 2 μmol/kg, tested 1, 5, 24 h) it was “significant pain relief when tested 1 hour post injection”; in series [3] (s.c. 10 μmol/kg, tested 1, 5, 24 h), “significant pain relief when tested 1 hour post injection”. The “relief of evoked pain (paw withdrawal threshold)” value in series [3] (s.c. 50 μmol/kg, tested 1, 5, 24 h) is listed as “significant pain relief when tested 1 hour post injection; also recorded: significant pain relief up to 5 hours post injection”. In series [2] (s.c. 30 μmol/kg, 52 weeks after SNI, tested 2 and 5 h), the “relief of evoked pain (paw withdrawal threshold), chronic pain” value is reported as “highly significant effect of the treatment at 5 hrs”. Moreover, in series [3] (s.c. 2.0 μmol/kg in PBS, day 2-5 after CFA, tested 2 and 5 h), the “relief of evoked pain (paw withdrawal threshold), lipid variants” value is “full and highly significant pain relief”. For the same compound, the “relief of evoked pain (paw withdrawal threshold), PDZ motif variants” value in series [3] (s.c. 2 μmol/kg, day 5 after CFA) is listed as “relieved pain”.
